Several values for one entry are separate records, joined by “and”; a condition that tells them apart may be missing. Identical values can stand only once.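 Cells were grown in 96-well plates and exposed to each compound for 48 hours at five concentrations; endpoints were interpolated linearly between bracketing concentrations, or set to the highest concentration if not reached. Abbreviation: GI50, concentration required for 50% inhibition of growth. TGI is the concentration that stops growth completely.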
Experiments:
Test in all cases: growth of human tumour cells (NCI), 48 h
[1] = system: K-562 leukemia
[2] = system: A498 renal
[3] = system: SK-MEL-5 melanoma
[4] = system: MALME-3M melanoma
[5] = system: T-47D breast
[6] = system: SW-620 colon
[7] = system: SK-OV-3 ovarian
[8] = system: PC-3 prostate
[9] = system: UO-31 renal
[10] = system: OVCAR-4 ovarian
[11] = system: M14 melanoma
[12] = system: SK-MEL-2 melanoma
[13] = system: NCI-H522 lung
[14] = system: DU-145 prostate
[15] = system: RPMI-8226 leukemia
[16] = system: LOX IMVI melanoma
[17] = system: SNB-78 CNS
[18] = system: LXFL 529 NSCLC
[19] = system: U251 CNS
[20] = system: HT29 colon
[21] = system: HCT-15 colon
[22] = system: SF-268 CNS
[23] = system: NCI-H460 lung
[24] = system: SK-MEL-28 melanoma
[25] = system: 786-0 renal
[26] = system: EKVX NSCLC
[27] = system: SR leukemia
[28] = system: OVCAR-8 ovarian
[29] = system: OVCAR-5 ovarian
[30] = system: UACC-257 melanoma
[31] = system: IGROV1 ovarian
[32] = system: DMS 114 small cell lung
[33] = system: OVCAR-3 ovarian
[34] = system: UACC-62 melanoma
[35] = system: SN12C renal
[36] = system: MDA-MB-231 breast
[37] = system: NCI-H23 lung
[38] = system: HCT-116 colon
[39] = system: SNB-19 CNS
[40] = system: HS 578T breast
[41] = system: RXF 393 renal
[42] = system: CCRF-CEM leukemia
[43] = system: DMS 273 small cell lung
[44] = system: KM12 colon
[45] = system: HOP-92 NSCLC
[46] = system: HOP-62 NSCLC
[47] = system: HL-60(TB) leukemia
[48] = system: MDA-MB-435
[49] = system: NCI-H226 lung
[50] = system: SF-295 CNS
[51] = system: SNB-75 CNS
[52] = system: SF-539 CNS
[53] = system: CAKI-1 renal
[54] = system: MDA-N
[55] = system: ACHN renal
[56] = system: NCI/ADR-RES ovarian
[57] = system: MOLT-4 leukemia
[58] = system: A549 NSCLC
[59] = system: COLO 205 colon
[60] = system: TK-10 renal
[61] = system: HCC-2998 colon

Compound: CC(=O)NC1C(OCc2ccccc2)OC(CO)C(O)C1OC(C)C(=O)NC(C)C(=O)N[C@@H](CCC(=O)OCCCNC1c2ccccc2Nc2cccc([N+](=O)[O-])c21)C(N)=O (stereo partly specified)
- TGI [1]: 0.0141 µM
- TGI [2]: 0.02 µM
- GI50 [3]: 0.02 µM
- TGI [3]: 0.0538 µM and 0.0152 µM
- GI50 [4]: 0.0157 µM
- TGI [4]: 0.0324 µM
- TGI [5]: 0.669 µM
- GI50 [6]: 0.00135 µM
- TGI [6]: 0.017 µM and 0.0557 µM
- GI50 [7]: 0.147 µM
- TGI [7]: 0.644 µM and 0.0965 µM
- TGI [8]: 0.141 µM
- TGI [9]: 0.0384 µM
- GI50 [10]: 0.0314 µM
- TGI [10]: 0.14 µM and < 0.018 µM
- GI50 [11]: 0.0201 µM
- TGI [11]: 0.0485 µM
- GI50 [12]: 0.0221 µM
- TGI [12]: 0.0532 µM
- GI50 [13]: 0.0138 µM
- TGI [13]: 0.0405 µM and < 0.0151 µM
- TGI [14]: 0.0799 µM
- TGI [15]: < 0.0174 µM
- GI50 [16]: 0.181 µM
- TGI [16]: 0.441 µM and 0.103 µM
- TGI [17]: 0.0407 µM
- TGI [18]: < 0.0232 µM
- GI50 [19]: 0.0138 µM
- TGI [19]: 0.0497 µM and 0.0159 µM
- GI50 [20]: 0.00583 µM
- TGI [20]: 0.0295 µM and 0.0102 µM
- TGI [21]: 0.0245 µM
- GI50 [22]: 0.0195 µM
- TGI [22]: 0.0639 µM and 0.0512 µM
- GI50 [23]: 0.00138 µM
- TGI [23]: 0.014 µM and 0.013 µM
- GI50 [24]: 0.027 µM
- TGI [24]: 0.0643 µM and 0.0155 µM
- GI50 [25]: 0.00674 µM
- TGI [25]: 0.0306 µM
- TGI [26]: 0.0334 µM and 0.0356 µM
- GI50 [27]: 0.0003 µM
- TGI [27]: 0.00948 µM and 0.0221 µM
- GI50 [28]: 0.02 µM
- TGI [28]: 0.0765 µM and 0.0347 µM
- GI50 [29]: 0.0105 µM
- TGI [29]: 0.0737 µM and 0.0488 µM
- TGI [30]: 0.0159 µM
- GI50 [31]: 0.0514 µM
- TGI [31]: 0.267 µM and 0.0861 µM
- TGI [32]: 0.0215 µM
- GI50 [33]: 0.0272 µM
- TGI [33]: 0.0945 µM and 0.0102 µM
- TGI [34]: < 0.0112 µM
- GI50 [35]: 0.0178 µM
- TGI [35]: 0.0975 µM and < 0.0122 µM
- TGI [36]: 0.074 µM
- TGI [37]: 0.0295 µM
- GI50 [38]: 0.00301 µM
- TGI [38]: 0.0242 µM and < 0.0116 µM
- GI50 [39]: 0.0303 µM
- TGI [39]: 0.211 µM and 0.0584 µM
- TGI [40]: 0.0725 µM
- TGI [41]: 0.032 µM
- GI50 [42]: 0.0444 µM and 0.0249 µM
- TGI [42]: 0.422 µM and 1.2 µM
- TGI [43]: < 0.0106 µM
- GI50 [44]: 0.0211 µM
- TGI [44]: 0.0516 µM and < 0.0107 µM
- GI50 [45]: 0.0159 µM
- TGI [45]: 0.0434 µM and 0.027 µM
- GI50 [46]: 0.0234 µM
- GI50 [47]: 0.0211 µM
- TGI [47]: 0.125 µM and 0.0398 µM
- TGI [48]: 0.0309 µM
- GI50 [49]: 0.0147 µM
- TGI [49]: 0.0455 µM and < 0.0151 µM
- GI50 [50]: 0.0677 µM
- TGI [50]: 0.433 µM and 0.0596 µM
- GI50 [51]: 0.0284 µM
- TGI [51]: 0.145 µM and 0.048 µM
- GI50 [52]: 0.0297 µM
- TGI [52]: 0.11 µM and 0.0167 µM
- GI50 [53]: 0.028 µM
- TGI [53]: 0.102 µM and 0.0163 µM
- TGI [54]: 0.0317 µM
- TGI [55]: 0.0465 µM and < 0.0407 µM
- TGI [56]: 0.0545 µM
- GI50 [57]: 0.0406 µM
- TGI [57]: 0.425 µM and 0.0486 µM
- GI50 [58]: 0.0306 µM
- GI50 [59]: 0.0134 µM
- TGI [59]: 0.0274 µM
- TGI [60]: 0.0301 µM
- GI50 [61]: 0.0164 µM
- TGI [61]: 0.0322 µM

Reference: PubChem BioAssay (NCI)
